Measured values published in patent US11104703B2, “Binding compound and uses thereof” (priority 2016, dated 2021).
Numbered stars: 1 amine (or outer) side, 2 acyl side, 3 side chain; on linkers, the order of the positions; unused ones are H or OH. Square brackets hold non-standard residues; d marks the D form. Side chains are listed from the residue outwards. Peptide text beside a SMILES is read from it. * marks the point of attachment. Biotin = O=C1N[C@H]2[C@H](CS[C@H]2CCCCC(=O)*)N1; Gly(N-(CH2)3-guanidino) = N=C(N)NCCCNCC(=O)O; Glutaryl = O=C(CCCC(=O)[*:2])[*:1]; X2 = O=C(Oc1c(F)c(F)c(F)c(F)c1F)*; X1 = O=C1CCC(=O)N1OC(=O)*; X3 = C#Cc1cccc(N*)c1; Ahx = NCCCCCC(=O)O

How the values were obtained:
Chymotrypsin = assay: Steady state fluorogenic substrate assay, inactivation of chymotrypsin; details: for k3: mean; for second-order rate constant: chymotrypsin
Method: (§1) The ability of compounds of the invention to inhibit the activities of a range of commercially sourced proteases was assessed using steady state fluorogenic substrate assays. […] Assays were carried out in PBS, pH 7.4, at 37° C., in the presence of varying concentrations of inhibitor (10-50 μM) and a fixed concentration of substrate (50 μM). […] In this mechanism, the inhibitor I, binds the target protease to form an initial reversible complex EI, characterised by the inhibitor constant Ki. This is followed by the formation of an irreversible complex E-I from EI, characterised by the first-order rate constant k3.

[1] = target: Human Airways Trypsin-like protease (HAT) (Homo sapiens, UniProt O60235); details: for k3/Ki: Mean (±SD); for k3: mean
Human Airways Trypsin-like protease (HAT), sequence (O60235 whole entry): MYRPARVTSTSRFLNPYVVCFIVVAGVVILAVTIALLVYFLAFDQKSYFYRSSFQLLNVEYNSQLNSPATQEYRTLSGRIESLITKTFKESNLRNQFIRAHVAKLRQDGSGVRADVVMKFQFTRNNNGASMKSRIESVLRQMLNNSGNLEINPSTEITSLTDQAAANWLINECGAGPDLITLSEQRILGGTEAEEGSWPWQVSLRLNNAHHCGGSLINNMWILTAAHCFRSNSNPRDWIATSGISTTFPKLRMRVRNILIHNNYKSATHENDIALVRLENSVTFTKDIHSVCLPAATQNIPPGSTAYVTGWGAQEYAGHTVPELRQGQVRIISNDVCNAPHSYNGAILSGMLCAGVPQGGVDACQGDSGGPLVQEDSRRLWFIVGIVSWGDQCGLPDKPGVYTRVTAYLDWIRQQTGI
Method: as §1

Trypsin = details: for k3 / k3/Ki / Ki: Trypsin; for k3: first-order rate constant, mean; for k3/Ki: overall second-order rate constant; for k3/Ki / Ki: Mean (±SD); for Ki: PBS pH 7.4, 37° C., Cbz-Gly-Gly-Arg-NHMec 50 μM; for over all second-order rate constant: trypsin
Method: as §1

[2] = tested on: primary human airway epithelial (HAE) cell cultures; details: 10 μM, Boc-QAR-AMC 50 μM, 37° C.
Method: (§2) Inhibition of endogenous protease activities in CF sputum sol, was conducted as for Example 8 but in the presence of Boc-Gln-Ala-Arg-AMC (50 μM) as substrate. The rate of hydrolysis of the substrate at 37° C. was monitored and residual activity determined.

[3] = tested on: endogenous protease activities in CF sputum sol; details: CF sputum sol from 8 individual CF patients; Boc-Gln-Ala-Arg-AMC 50 μM
Method: as §2

Matriptase = Matriptase (Homo sapiens, UniProt Q9Y5Y6); details: for k3/Ki: Mean (±SD); for k3: mean
Matriptase, sequence (Q9Y5Y6 whole entry, species assumed): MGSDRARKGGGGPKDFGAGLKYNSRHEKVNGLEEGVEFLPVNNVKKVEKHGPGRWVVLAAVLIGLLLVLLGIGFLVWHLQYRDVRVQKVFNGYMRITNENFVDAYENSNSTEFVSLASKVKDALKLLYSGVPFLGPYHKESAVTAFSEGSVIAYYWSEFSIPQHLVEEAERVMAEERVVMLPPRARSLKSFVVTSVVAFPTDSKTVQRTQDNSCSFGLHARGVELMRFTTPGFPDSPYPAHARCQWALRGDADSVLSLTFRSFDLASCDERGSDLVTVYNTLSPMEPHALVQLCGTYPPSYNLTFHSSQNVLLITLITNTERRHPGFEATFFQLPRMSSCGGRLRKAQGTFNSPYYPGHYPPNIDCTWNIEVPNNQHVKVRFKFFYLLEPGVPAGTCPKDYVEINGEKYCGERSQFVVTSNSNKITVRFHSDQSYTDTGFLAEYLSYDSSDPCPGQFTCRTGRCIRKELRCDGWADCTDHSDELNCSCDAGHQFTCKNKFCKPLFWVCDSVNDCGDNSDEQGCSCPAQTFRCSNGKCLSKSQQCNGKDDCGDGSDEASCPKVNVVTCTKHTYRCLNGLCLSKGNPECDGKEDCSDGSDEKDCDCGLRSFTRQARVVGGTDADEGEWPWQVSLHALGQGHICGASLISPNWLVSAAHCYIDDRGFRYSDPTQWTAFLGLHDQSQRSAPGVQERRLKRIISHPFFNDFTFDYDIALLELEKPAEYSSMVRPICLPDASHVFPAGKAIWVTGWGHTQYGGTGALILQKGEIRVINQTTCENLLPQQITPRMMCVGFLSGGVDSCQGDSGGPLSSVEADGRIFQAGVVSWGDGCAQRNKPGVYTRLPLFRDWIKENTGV
Method: as §1

Thrombin = Thrombin (Homo sapiens, UniProt P00734)
Method: as §1

Plasmin = Plasmin (Homo sapiens, UniProt P00747); assay: Steady state fluorogenic substrate assay, inactivation of plasmin
Plasmin, sequence (P00747 97-810, species assumed): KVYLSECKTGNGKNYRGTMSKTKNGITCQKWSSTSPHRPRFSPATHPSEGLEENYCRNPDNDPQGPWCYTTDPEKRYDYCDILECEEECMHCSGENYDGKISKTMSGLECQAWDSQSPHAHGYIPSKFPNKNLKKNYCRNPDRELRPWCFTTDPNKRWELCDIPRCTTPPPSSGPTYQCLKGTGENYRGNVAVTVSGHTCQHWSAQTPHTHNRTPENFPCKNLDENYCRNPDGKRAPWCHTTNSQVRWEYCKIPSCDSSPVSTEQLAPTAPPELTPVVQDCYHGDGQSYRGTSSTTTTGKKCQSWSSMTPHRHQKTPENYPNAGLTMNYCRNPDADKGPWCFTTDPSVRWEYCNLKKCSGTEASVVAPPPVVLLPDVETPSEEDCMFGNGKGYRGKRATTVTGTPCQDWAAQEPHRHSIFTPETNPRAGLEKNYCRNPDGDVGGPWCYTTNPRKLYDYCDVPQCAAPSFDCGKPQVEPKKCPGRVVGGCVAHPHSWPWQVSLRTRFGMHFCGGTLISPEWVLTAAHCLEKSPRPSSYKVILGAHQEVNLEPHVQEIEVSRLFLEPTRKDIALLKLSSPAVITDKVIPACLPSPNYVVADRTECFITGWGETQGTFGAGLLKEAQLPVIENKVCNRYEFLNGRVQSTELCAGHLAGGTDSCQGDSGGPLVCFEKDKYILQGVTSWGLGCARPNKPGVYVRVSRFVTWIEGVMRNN
Method: as §1

[4] = tested on: primary CF Airway Epithelial Cells (AECs); details: 50 μM, 24 hours, n=3, vehicle control 3.5
Method: Mucociliary clearance was quantified by measuring the velocity of microbeads apically applied to differentiated primary CF Airway Epithelial Cells (AECs). Compounds (50 μM) were added to the apical surface of primary CF AECs for a period of 24 hours. Mucociliary flow was then determined by tracking and measuring the velocity of apically applied microbeads across the CF AEC surface.

ENaC = assay type: cell-based
Method: All determinations were conducted using a TECC24 semiautomated system. Unlike the traditional Ussing chamber assays, where the short circuit current (ISC) is measured as an index of CFTR correction, the TECC-24 assay measures the equivalent current (IEQ).

[5] = tested on: trypsin-like serine proteases in CF Sol; details: 10 μM; pooled CF sputum sol diluted ×4; substrate Cbz-Gly-Gly-Arg-AMC; 37° C.
Method: Briefly, the spectrofluorimetic analysis was conducted on a sample of pooled supernatant recovered by centrifugation from expectorated cystic fibrosis sputum, which had been diluted ×4 with phosphate-buffered saline (sputum sol). […] The rate of hydrolysis of the substrate at 37° C. was monitored and inhibition as a % of an untreated control calculated.

Biotin-PEG-NH—(N-methyl glycyl)-(N-methyl glycyl)-N-(benzyl)-glycine succinimidyl carbamate [CG877]
k3 (Chymotrypsin; Chymotrypsin): 0.7 min⁻¹ | second-order rate constant (Chymotrypsin): 2.46 (±0.214)×10^5 M^−1·min^−1

Biotin-PEG-NH—N-(n-guanidino-propyl)-glycine-Gln-Sar-N-(n-guanidino-propyl)-glycine succinimidyl carbamate [NAP1099]
k3/Ki [1]: 3.71 (±2.89) × 10^6 M^−1 min^−1 | k3 [1]: 0.474 min⁻¹ | k3 (Trypsin): 0.354 min⁻¹ | k3/Ki (Trypsin): 3.80 (±3.16) × 10^6 M^−1 min^−1 | extracellular tryptic activity [2]: reduced extracellular tryptic activity to a similar degree as that of QUB-TL1 | inhibition of endogenous protease activity, residual activity compared with QUB-TL1 [3]: superior to QUB-TL1 | k3/Ki (Matriptase): 8.52 (±9.05) × 10^6 M^−1 min^−1 | k3 (Matriptase): 0.302 min⁻¹

Biotin-PEG-NH-Gly-Gly-N-(benzyl)-glycine succinimidyl carbamate [NFP849]
k3/Ki (Chymotrypsin; Chymotrypsin, Mean (±SD)): 1.3 (±0.4) × 10^6 M^−1 min^−1 | Ki (Chymotrypsin; Chymotrypsin, Suc-Ala-Ala-Pro-Phe-NHMec 50 μM, Mean (±SD)): 890 nM | k3 (Chymotrypsin; Chymotrypsin): 0.8 min⁻¹ | second-order rate constant (Chymotrypsin): 1.28 (±0.442)×10^6 M^−1·min^−1

N=C(N)NCCCN(CC(=O)NCC(=O)NCC(=O)NCCCCCC(=O)N[C@@H](CCCCNC(=O)CCCC[C@@H]1SC[C@@H]2NC(=O)N[C@@H]21)C(=O)O)C(=O)ON1C(=O)CCC1=O [NAP897, HO-Lys(Biotin)-Ahx-Gly-Gly-N-(n-guanidino-propyl)-glycine succinimidyl carbamate] (X1-[Gly(N-(CH2)3-guanidino)]GG[Ahx]K(Biotin)-OH)
Ki (Trypsin): 660 nM | k3 (Trypsin): 0.7 min⁻¹ | k3/Ki (Trypsin): 1.3 (±0.4) × 10^6 M^−1 min^−1

Biotin-PEG-NH—(N-benzyl-glycyl)-(D)-phenylalanyl-N-(n-guanidino-propyl)-glycine succinimidyl carbamate [NAT988]
k3/Ki (Thrombin; Mean (±SD)): 4.7 (± 1.1) × 10^5 M^−1 min^−1 | k3 (Thrombin; mean): 0.4 min⁻¹

N=C(N)NCCCN(CC(=O)NCC(=O)NCC(=O)NCCCCCC(=O)N[C@@H](CCCCNC(=O)CCCC[C@@H]1SC[C@@H]2NC(=O)N[C@@H]21)C(=O)O)C(=O)Oc1c(F)c(F)c(F)c(F)c1F [NAP966, HO-Lys(biotin)-Ahx-Gly-Gly-N-(n-guanidino-propyl)-glycine pentafluorophenyl carbamate] (X2-[Gly(N-(CH2)3-guanidino)]GG[Ahx]K(Biotin)-OH)
Ki (Trypsin): 2100 nM | k3 (Trypsin): 0.4 min⁻¹ | k3/Ki (Trypsin): 1.9 (±0.25) × 10^5 M^−1 min^−1

C#Cc1cccc(NC(=O)CCCC(=O)NCCCC[C@H](NC(=O)CCCCCNC(=O)CNC(=O)CNC(=O)CN(CCCNC(=N)N)C(=O)ON2C(=O)CCC2=O)C(=O)O)c1 [NAP884, N-6-(1-acetylene-3-amino-phenyl)-di-carboxy-pentane-Lys-NH-Ahx-Gly-Gly-N-(n-guanidino-propyl)-glycine succinimidyl carbamate] (X1-[Gly(N-(CH2)3-guanidino)]GG[Ahx]K([Glutaryl-X3])-OH)
Ki (Trypsin): 420 nM | k3 (Trypsin): 0.528 min⁻¹ | k3/Ki (Trypsin): 1.34 (±0.351) × 10^6 M^−1 min^−1

Biotin-PEG-NH-Gly-Gly-N-(n-amino-butyl)-glycine succinimidyl carbamate [NKP830]
Ki (Trypsin): 220 nM | k3 (Trypsin): 0.5 min⁻¹ | k3/Ki (Trypsin): 2.7 (±0.5) × 10^6 M^−1 min^−1 | over all second-order rate constant (Trypsin): 2.74 (±0.547)×10^6 M^−1·min^−1 | Ki (Plasmin; Boc-Val-Leu-Lys-NHMec 50 μM, Mean (±SD)): 7200 nM | k3/Ki (Plasmin; Mean (±SD)): 6.2 (±0.9) × 10^4 M^−1 min^−1 | k3 (Plasmin; mean): 0.4 min⁻¹

Biotin-PEG-NH-Gly-Gly-N-(n-guanidino-propyl)-glycine succinimidyl carbamate [NAP858]
k3/Ki [1]: 1.50 (±1.76) × 10^6 M^−1 min^−1 | k3 [1]: 0.464 min⁻¹ | mucociliary clearance (velocity of apically applied microbeads) [4]: 6.83 μm/s | ENaC activity (reduction of current) (ENaC; 50 μM, primary CF cultures, over a 90 minute period): 36 μA/cm2 | Ki (Trypsin): 486 nM | k3 (Trypsin): 0.299 min⁻¹ | k3/Ki (Trypsin): 1.95 (±2.62) × 10^6 M^−1 min^−1 | over all second-order rate constant (Trypsin): 2.60 (±0.884)×10^6 M^−1·min^−1 | extracellular tryptic activity [2]: reduced extracellular tryptic activity to a similar degree as that of QUB-TL1 | inhibition of hydrolytic action of trypsin-like serine proteases in CF Sol [5]: complete inhibition | inhibition of endogenous protease activity, residual activity compared with QUB-TL1 [3]: superior to QUB-TL1 | k3/Ki (Matriptase): 1.30 (±0.943) × 10^6 M^−1 min^−1 | k3 (Matriptase): 0.314 min⁻¹

N=C(N)NC(=O)c1nc(Cl)c(N)nc1N [amiloride, reference compound]
inhibition of the observable current (ENaC; 10 μM, added to terminate the experiment, ENaC-expressing FRT cells): > 95%
